Source: ChEMBL document CHEMBL5512647, “Cajaninstilbene acid derivatives conjugated with siderophores of 3-hydroxypyridin-4(1H)-ones as novel antibacterial agents against Gram-negative bacteria based on the Trojan horse strategy” (Eur J Med Chem, 2024)
Activity calls are given as the source filed them.

Legend:
Pseudomonas aeruginosa [1] = experiment: Antibacterial activity against Pseudomonas aeruginosa 1121 measured after 18 to 20 hrs by broth microdilution method; type: functional; conditions: time 18-20 hrs
Escherichia coli [2] = experiment: Antibacterial activity against Escherichia coli ATCC 25922 measured after 18 to 20 hrs by broth microdilution method; type: functional; conditions: time 18-20 hrs
Pseudomonas aeruginosa [3] = experiment: Antibacterial activity against Pseudomonas aeruginosa FB measured after 18 to 20 hrs by broth microdilution method; type: functional; conditions: time 18-20 hrs
Pseudomonas aeruginosa [4] = experiment: Antibacterial activity against Pseudomonas aeruginosa PAO1 measured after 18 to 20 hrs by broth microdilution method; type: functional; conditions: time 18-20 hrs
Staphylococcus aureus = experiment: Antibacterial activity against Staphylococcus aureus ATCC 25923 measured after 18 to 20 hrs by broth microdilution method; type: functional; conditions: time 18-20 hrs
Klebsiella pneumoniae [5] = experiment: Antibacterial activity against Klebsiella pneumoniae ATCC 700603 measured after 18 to 20 hrs by broth microdilution method; type: functional; conditions: time 18-20 hrs
Pseudomonas aeruginosa [6] = experiment: Antibacterial activity against Pseudomonas aeruginosa 27853 measured after 18 to 20 hrs by broth microdilution method; type: functional; conditions: time 18-20 hrs
Pseudomonas aeruginosa [7] = experiment: Antibacterial activity against Pseudomonas aeruginosa PAO1 measured after 18 to 20 hrs in presence of FeIII cultured under CAA medium by broth microdilution method; type: functional; conditions: time 18-20 hrs
Pseudomonas aeruginosa [8] = experiment: Antibacterial activity against Pseudomonas aeruginosa 27853 measured after 18 to 20 hrs in presence of FeIII cultured under CAA medium by broth microdilution method; type: functional; conditions: time 18-20 hrs
Escherichia coli [9] = experiment: Antibacterial activity against Escherichia coli ATCC 25922 measured after 18 to 20 hrs in presence of FeIII cultured under CAA medium by broth microdilution method; type: functional; conditions: time 18-20 hrs
Klebsiella pneumoniae [10] = experiment: Antibacterial activity against Klebsiella pneumoniae ATCC 700603 measured after 18 to 20 hrs in presence of FeIII cultured under CAA medium by broth microdilution method; type: functional; conditions: time 18-20 hrs
[11] = Cytotoxicity against African green monkey Vero cells at 100 uM measured after 24 hrs by MTT assay; type: toxicity, cell-based; conditions: chlorocebus sabaeus
Cell membrane [12] = experiment: Induction of outer membrane permeabilization in Pseudomonas aeruginosa PAO1 assessed as increase in accumulation of NPN by measuring fluorescence intensity measured for 1 hr by NPN dye uptake assay; type: cell membranes
[13] = Cytotoxicity against African green monkey Vero cells at 50 uM measured after 24 hrs by MTT assay; type: toxicity, cell-based; conditions: chlorocebus sabaeus
Pseudomonas aeruginosa [14] = experiment: Antibacterial activity against Pseudomonas aeruginosa PAO1 infected in Caenorhabditis elegans assessed as survival rate at 12.5 to 50 uM measured upto 72 hrs relative to control; type: functional; conditions: dose 12.5-50 µM
Pseudomonas aeruginosa [15] = experiment: Antibacterial activity against Pseudomonas aeruginosa PAO1 infected in Caenorhabditis elegans assessed as improvement in survival rate at 12.5 to 50 uM measured upto 72 hrs; type: functional, organism-based; conditions: dose 12.5-50 µM
Pseudomonas aeruginosa [16] = experiment: Antibacterial activity against Pseudomonas aeruginosa PAO1 delta-pvds measured after 18 to 20 hrs by broth microdilution method; type: functional, organism-based; conditions: time 18-20 hrs
Cell membrane [17] = experiment: Induction of cytoplasmic membrane permeabilization in Pseudomonas aeruginosa PAO1 assessed as disruption of cell membrane integrity by measuring increase in number of dead cells measured after 2 hrs by PI and SYTO9 staining based confocal laser scanning microscopy analysis; type: cell membranes
[18] = Acute toxicity in L4 stage of Caenorhabditis elegans at 12.5 to 50 uM; conditions: dose 12.5-50 µM
Erythrocyte = experiment: Hemolytic activity in rabbit red blood cells assessed as hemolysis at 12.5 to 50 uM measured after 2 hrs by microplate reader based analysis; type: toxicity, cell-based, Oryctolagus cuniculus; conditions: dose 12.5-50 µM
Pseudomonas aeruginosa [19] = experiment: Antibacterial activity against Pseudomonas aeruginosa PAO1 overexpressing fpvA mutant assessed as fold increase in MIC measured after 18 to 20 hrs by broth microdilution method; type: functional; conditions: time 18-20 hrs
[20] = Metal chelating activity assessed as compound-Fe3+ complex formation incubated for 10 mins by CAS assay

CC(C)=CCc1c(OCCCCCC(=O)NCc2cc(=O)c(O)cn2C)cc(CSc2ccc(F)cc2)c(C(=O)O)c1O
> 250 µM: MIC (Pseudomonas aeruginosa [1]) | MIC (Escherichia coli [2]) | MIC (Pseudomonas aeruginosa [3]) | MIC (Pseudomonas aeruginosa [4]) | MIC (Staphylococcus aureus) | MIC (Klebsiella pneumoniae [5]) | MIC (Pseudomonas aeruginosa [6])

CC(C)=CCc1c(OCc2cn(Cc3cc(=O)c(O)cn3C)nn2)cc(/C=C/c2ccc(F)cc2)c(C(=O)O)c1O
> 250 µM: MIC (Pseudomonas aeruginosa [1]) | MIC (Escherichia coli [2]) | MIC (Pseudomonas aeruginosa [3]) | MIC (Pseudomonas aeruginosa [4]) | MIC (Staphylococcus aureus) | MIC (Klebsiella pneumoniae [5]) | MIC (Pseudomonas aeruginosa [6])

CCn1cc(C(=O)O)c(=O)c2cc(F)c(N3CCNCC3)cc21 [NORFLOXACIN]
3.9 µM: MIC (Pseudomonas aeruginosa [1]) | MIC (Pseudomonas aeruginosa [3])
15.6 µM: MIC (Pseudomonas aeruginosa [8]) | MIC (Pseudomonas aeruginosa [6])
0.49 µM: MIC (Escherichia coli [2]) | MIC (Escherichia coli [9])
7.8 µM: MIC (Staphylococcus aureus)
1.95 µM: MIC (Pseudomonas aeruginosa [7]) | MIC (Pseudomonas aeruginosa [4])
31.2 µM: MIC (Klebsiella pneumoniae [5]) | MIC (Klebsiella pneumoniae [10])

CC(C)=CCc1c(OCCCCCCCC(=O)NCc2cc(=O)c(O)cn2C)cc(CSc2ccc(F)cc2)c(C(=O)O)c1O
> 250 µM: MIC (Pseudomonas aeruginosa [1]) | MIC (Escherichia coli [2]) | MIC (Pseudomonas aeruginosa [3]) | MIC (Pseudomonas aeruginosa [4]) | MIC (Staphylococcus aureus) | MIC (Klebsiella pneumoniae [5]) | MIC (Pseudomonas aeruginosa [6])

CC(C)=CCc1c(OCCCCCC(=O)NCc2c(O)c(=O)cc(C)n2C)cc(/C=C/c2ccc(F)cc2)c(C(=O)O)c1O
> 250 µM: MIC (Pseudomonas aeruginosa [1]) | MIC (Escherichia coli [2]) | MIC (Pseudomonas aeruginosa [3]) | MIC (Pseudomonas aeruginosa [4]) | MIC (Staphylococcus aureus) | MIC (Klebsiella pneumoniae [5]) | MIC (Pseudomonas aeruginosa [6])

CCCCCCCC(=O)NCc1cc(=O)c(O)cn1C
> 250 µM: MIC (Pseudomonas aeruginosa [1]) | MIC (Escherichia coli [2]) | MIC (Pseudomonas aeruginosa [3]) | MIC (Pseudomonas aeruginosa [4]) | MIC (Staphylococcus aureus) | MIC (Klebsiella pneumoniae [5]) | MIC (Pseudomonas aeruginosa [6])

CC(C)=CCc1c(OCc2cn(CCCCCCC(=O)NCc3cc(=O)c(O)cn3C)nn2)cc(/C=C/c2ccc(F)cc2)c(C(=O)O)c1O
15.6 µM: MIC (Pseudomonas aeruginosa [4])
> 250 µM: MIC (Pseudomonas aeruginosa [1]) | MIC (Escherichia coli [2]) | MIC (Pseudomonas aeruginosa [3]) | MIC (Staphylococcus aureus) | MIC (Klebsiella pneumoniae [5]) | MIC (Pseudomonas aeruginosa [6])

CCCCCCC(=O)NCc1cc(=O)c(O)cn1C
> 250 µM: MIC (Pseudomonas aeruginosa [1]) | MIC (Escherichia coli [2]) | MIC (Pseudomonas aeruginosa [3]) | MIC (Pseudomonas aeruginosa [4]) | MIC (Staphylococcus aureus) | MIC (Klebsiella pneumoniae [5]) | MIC (Pseudomonas aeruginosa [6])

CCn1cc(O)c(=O)cc1CNC(=O)CCCCCCOc1cc(/C=C/c2ccc(F)cc2)c(C(=O)O)c(O)c1CC=C(C)C
7.8 µM: MIC (Pseudomonas aeruginosa [4])
> 250 µM: MIC (Pseudomonas aeruginosa [1]) | MIC (Escherichia coli [2]) | MIC (Pseudomonas aeruginosa [3]) | MIC (Staphylococcus aureus) | MIC (Klebsiella pneumoniae [5])
31.2 µM: MIC (Pseudomonas aeruginosa [6])

CC(C)=CCc1c(OCCCCCC(=O)NCc2c(O)c(=O)cc(C)n2C)cc(CSc2ccc(F)cc2)c(C(=O)O)c1O
> 250 µM: MIC (Pseudomonas aeruginosa [1]) | MIC (Escherichia coli [2]) | MIC (Pseudomonas aeruginosa [3]) | MIC (Pseudomonas aeruginosa [4]) | MIC (Staphylococcus aureus) | MIC (Klebsiella pneumoniae [5]) | MIC (Pseudomonas aeruginosa [6])

CC1(C)S[C@@H]2[C@H](NC(=O)[C@H](N)c3ccccc3)C(=O)N2[C@H]1C(=O)O [AMPICILLIN]
62.5 µM: MIC (Pseudomonas aeruginosa [7])
3.9 µM: MIC (Escherichia coli [9])
1.95 µM: MIC (Escherichia coli [2])
> 250 µM: MIC (Pseudomonas aeruginosa [1]) | MIC (Pseudomonas aeruginosa [8]) | MIC (Pseudomonas aeruginosa [3]) | MIC (Klebsiella pneumoniae [5]) | MIC (Pseudomonas aeruginosa [6]) | MIC (Klebsiella pneumoniae [10])
0.24 µM: MIC (Staphylococcus aureus)
125 µM: MIC (Pseudomonas aeruginosa [4])

CC(C)=CCc1c(OCCCCCCCC(=O)NCc2cc(=O)c(O)cn2C)cc(/C=C/c2ccc(F)cc2)c(C(=O)O)c1O
active: Activity (Cell membrane [12]) | Activity (Pseudomonas aeruginosa [15]) | Activity (Pseudomonas aeruginosa [16]) | Activity (Cell membrane [17]) Dose-Dependent Effect | Activity [20]
15.6 µM: MIC (Pseudomonas aeruginosa [1]) | MIC (Pseudomonas aeruginosa [6])
7.8 µM: MIC (Pseudomonas aeruginosa [4])
> 250 µM: MIC (Pseudomonas aeruginosa [7]) | MIC (Pseudomonas aeruginosa [8]) | MIC (Escherichia coli [2]) | MIC (Escherichia coli [9]) | MIC (Staphylococcus aureus) | MIC (Klebsiella pneumoniae [5]) | MIC (Klebsiella pneumoniae [10])
Toxic: Activity [11]
50%: Survival (Pseudomonas aeruginosa [14])
4: fold change (FC) (Pseudomonas aeruginosa [19])
31.2 µM: MIC (Pseudomonas aeruginosa [3])
Non-Toxic: Activity [13] | Activity [18] | Activity (Erythrocyte)
